Ki data for nine compounds are collected here from ChEMBL document CHEMBL1143473, “Synthesis and evaluation of 18F-labeled dopamine D3 receptor ligands as potential PET imaging agents” (Bioorg Med Chem Lett, 2005).

A short description of experiment [1]: Binding affinity towards 5-HT2 receptor using porcine cortical membrane and [3H]ketanserin as radioligand. On the set-up: species or system Sus scrofa.
In experiment [2] the target is T1, D(2) dopamine receptor (Homo sapiens, UniProt P14416). The experiment in a line: biochemical.
Description: Binding affinity towards Dopamine D2S receptor using CHO cell line and [3H]spiperone as radioligand
The target of experiment [3] is D(3) dopamine receptor (Homo sapiens, UniProt P35462). The experiment in a line: biochemical.
Description: Binding affinity towards Dopamine receptor D3 using CHO cell line and [3H]-spiperone as radioligand
For experiment [4], the target named is D(1A) dopamine receptor (Sus scrofa, UniProt P50130). The experiment in a line: Binding affinity towards Dopamine receptor D1 using porcine striatal membrane and [3H]-SCH- 23390 as radioligand. Also noted: species or system Striatum.
For experiment [5], the target named is T1, D(2) dopamine receptor. The experiment in a line: biochemical. The source holds these as a separate data set.
Description: Binding affinity towards Dopamine D2L receptor using CHO cell line and [3H]spiperone as radioligand
The target of experiment [6] is T2, D(4) dopamine receptor (Homo sapiens, UniProt P21917).
T2 sequence (P21917 whole entry): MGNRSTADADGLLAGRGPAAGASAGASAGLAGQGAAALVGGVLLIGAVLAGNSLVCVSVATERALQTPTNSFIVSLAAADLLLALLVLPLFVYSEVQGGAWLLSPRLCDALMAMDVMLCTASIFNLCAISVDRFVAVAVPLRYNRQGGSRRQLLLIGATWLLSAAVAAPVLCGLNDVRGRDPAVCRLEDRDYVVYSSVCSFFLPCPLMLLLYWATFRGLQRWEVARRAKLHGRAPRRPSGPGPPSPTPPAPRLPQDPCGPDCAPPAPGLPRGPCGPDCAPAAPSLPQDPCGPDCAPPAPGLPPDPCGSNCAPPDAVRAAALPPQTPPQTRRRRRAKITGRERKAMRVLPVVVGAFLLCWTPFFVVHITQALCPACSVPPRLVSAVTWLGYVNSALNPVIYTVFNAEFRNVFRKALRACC
Briefly: biochemical.
Description: Binding affinity towards Dopamine receptor D 4.4 using CHO cell line and [3H]spiperone as radioligand

Chain of D(1A) dopamine receptor (P50130 whole entry): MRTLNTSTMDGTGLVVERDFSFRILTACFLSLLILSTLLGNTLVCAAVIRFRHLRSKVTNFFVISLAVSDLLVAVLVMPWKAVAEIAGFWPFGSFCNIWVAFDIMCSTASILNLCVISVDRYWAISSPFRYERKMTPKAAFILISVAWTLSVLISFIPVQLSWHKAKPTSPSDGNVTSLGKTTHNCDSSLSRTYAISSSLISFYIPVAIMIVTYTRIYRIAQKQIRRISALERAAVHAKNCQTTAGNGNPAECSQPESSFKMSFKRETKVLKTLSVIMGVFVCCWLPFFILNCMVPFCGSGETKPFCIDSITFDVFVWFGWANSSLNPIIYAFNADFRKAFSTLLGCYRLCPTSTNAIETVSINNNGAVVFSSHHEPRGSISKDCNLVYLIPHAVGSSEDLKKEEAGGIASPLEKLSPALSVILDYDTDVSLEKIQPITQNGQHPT
T1 sequence (P14416 whole entry): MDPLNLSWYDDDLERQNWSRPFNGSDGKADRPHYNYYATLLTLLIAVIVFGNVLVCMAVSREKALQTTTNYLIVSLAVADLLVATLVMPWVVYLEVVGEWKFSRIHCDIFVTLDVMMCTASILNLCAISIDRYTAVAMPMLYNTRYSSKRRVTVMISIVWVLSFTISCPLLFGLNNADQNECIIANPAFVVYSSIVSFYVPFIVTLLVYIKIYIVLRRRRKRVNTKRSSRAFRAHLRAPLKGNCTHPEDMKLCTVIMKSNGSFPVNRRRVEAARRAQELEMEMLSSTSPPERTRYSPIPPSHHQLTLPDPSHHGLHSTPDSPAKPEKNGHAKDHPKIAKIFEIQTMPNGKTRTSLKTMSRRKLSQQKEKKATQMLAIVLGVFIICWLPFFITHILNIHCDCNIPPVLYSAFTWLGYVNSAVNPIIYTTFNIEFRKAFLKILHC
Chain of D(3) dopamine receptor (P35462 whole entry): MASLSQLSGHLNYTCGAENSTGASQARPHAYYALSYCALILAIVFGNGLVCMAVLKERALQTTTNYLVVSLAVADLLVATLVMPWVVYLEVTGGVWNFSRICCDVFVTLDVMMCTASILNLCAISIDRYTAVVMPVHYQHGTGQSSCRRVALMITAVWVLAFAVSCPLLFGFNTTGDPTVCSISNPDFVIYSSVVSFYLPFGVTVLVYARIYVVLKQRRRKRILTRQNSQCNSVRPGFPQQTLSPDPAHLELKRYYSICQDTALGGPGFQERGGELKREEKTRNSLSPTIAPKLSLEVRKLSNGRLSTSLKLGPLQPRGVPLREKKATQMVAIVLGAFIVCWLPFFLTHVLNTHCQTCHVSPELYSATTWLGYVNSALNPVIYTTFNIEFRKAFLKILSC

In experiment [1], `COc1ccccc1N1CCN(CCCCNC(=O)c2ccc(F)cc2)CC1` registered a Ki of 2300 nM.
As for `COc1ccccc1N1CCN(CCCCNS(=O)(=O)c2ccc(F)cc2)CC1`, the Ki in experiment [2] is 120 nM; in experiment [3], 210 nM; in experiment [4], 3500 nM; in experiment [5], 72 nM; in experiment [6], 9.9 nM.
As for `O=S(=O)(NCCCCN1CCN(c2cccc(Cl)c2Cl)CC1)c1ccc(F)cc1`, the Ki in experiment [2] turned out to be 49 nM; in experiment [3], 16 nM; in experiment [1] it was 830 nM; in experiment [4] it was 1800 nM; in experiment [5], 39 nM; in experiment [6], 17 nM.
With `O=C(NCCCCN1CCN(c2cccc(Cl)c2Cl)CC1)c1ccc(F)cc1`, the Ki in experiment [2] came to 18 nM; in experiment [3] it was 0.53 nM; in experiment [1], 230 nM; in experiment [4], 920 nM; in experiment [6], 44 nM.
In the case of `O=C(NCCCCN1CCN(c2cccc(Cl)c2Cl)CC1)c1ccc(F)nc1`, the Ki in experiment [2] stood at 29 nM; in experiment [3], 1.1 nM; in experiment [1], 84 nM; in experiment [4], 1300 nM; in experiment [5] it was 21 nM; in experiment [6], 100 nM.
As for `O=C(NCCCCN1CCN(c2cccc(Cl)c2Cl)CC1)c1cccc(F)n1`, the Ki in experiment [2] worked out at 57 nM; in experiment [3] it was 9 nM; in experiment [1], 240 nM; in experiment [4], 910 nM; in experiment [5] it was 44 nM; in experiment [6] it was 97 nM.
As to `COc1ccccc1N1CCN(CCCCNC(=O)c2cccc(F)n2)CC1`, the Ki is 400 nM in experiment [2]; 86 nM in experiment [3]; 3200 nM in experiment [1]; 4100 nM in experiment [4]; 260 nM in experiment [5]; 76 nM in experiment [6].
As for `COc1ccccc1N1CCN(CCCCNC(=O)c2ccc(F)nc2)CC1`, the Ki was 240 nM in experiment [2]; 14 nM in experiment [3]; 3700 nM in experiment [1]; 6300 nM in experiment [4]; 160 nM in experiment [5]; 130 nM in experiment [6].
For `O=C(NCCCCN1CCN(c2cccc(Cl)c2Cl)CC1)c1cc2ccccc2s1`, the Ki in experiment [1] came out at 3000 nM.

Usually Ki stands for the equilibrium dissociation constant of an inhibitor or competing ligand from its target.
